Measured values taken from patent publication EP0460488B1, “Sulfur-containing heterocyclic compounds” (Takeda Chemical Industries, Ltd., priority 1990, dated 1991).

Test system: bone resorption
Experiment: Study on bone resorption inhibition: 45Ca release from cultured rat fetal bones (method of Raisz)
Format: cell-based, Sprague-Dawley rat
Settings: rat fetal bone culture, 2 days with test compound, mean of 5 bones, test concentration not given; for ^45Ca release (% to control): ratio of treatment group to control; for 45Ca release (% to control): description for DK (own example numbering)
Description: Bone resorption inhibitory activity was determined according to the method of Raisz [Journal of Clinical Investigation (J. Clin. Invest.) 44, 103-116 (1965)].
(§1) That is, a Sprague-Dawley rat at day 19 of pregnancy was subcutaneously dosed with 50 µCi of 45Ca (a radioisotope of calcium, in CaCl2). On the next day, the animal was laparotomized and the fetuses were removed aseptically. The right and left […] (radii and ulnae) of each rat fetus were dissected from the body under the dissection microscope. The connective tissue and cartilages were removed as far as possible to prepare bone culture specimens. Each piece of bone was incubated in 0.6 ml of BGJb medium (Fitton-Jackson modification [the tradename owned by GIBCO Laboratories, U.S.A.]) containing 2 mg/ml of bovine serum albumin at 37°C for 24 hours. Then, incubation was carried out for additional two days in the above-mentioned medium. The radioactivities of 45Ca in the culture medium and bone were determined and the ratio (%) of 45Ca released from the bone to the medium was calculated according to the following formula. A =(B)/(B + C)x 100 [formula] A = ratio (%) of ^45Ca released from the bone to the medium B = ^45Ca count in the medium C = ^45Ca count in the bone
The bones from the fetuses of the same litter were similarly incubated without addition of the test compound for two days and served as controls.
The values for 5 bones per group were expressed in mean. The ratio (%) of this value for the treatment group to the control value was determined.
as §1, with “of ^45Ca” for “of 45Ca”

Compound | ^45Ca release (% to control) | 45Ca release (% to control)
COc1cc2c(cc1OC)C(=O)CSC(C(=O)Nc1nc(-c3ccccc3)cs1)C2 (centres unmarked) [Example 47] | 69 % to control | –
O=C1CSC(C(=O)Nc2ccc(Cl)cc2)Cc2ccc(Cl)cc21 (centres unmarked) [Example 48] | 68 % to control | –
Cc1ccc2c(c1)C(=O)CSC(C(=O)Nc1ccc(Cl)cc1)C2 (centres unmarked) [Example 50] | 61 % to control | –
Cc1ccc2c(c1)C(=O)CSC(C(=O)N(C)Cc1ccccc1)C2 (centres unmarked) [Example 54] | 63 % to control | –
COc1cc2c(cc1OC)C(=O)CSC(C(=O)Nc1nc(-c3ccccc3)cs1)C2 (centres unmarked) [compound 25] | – | 69 % to control
O=C1CSC(C(=O)Nc2ccc(Cl)cc2)Cc2ccc(Cl)cc21 (centres unmarked) [compound 26] | – | 68 % to control
Cc1ccc2c(c1)C(=O)CSC(C(=O)Nc1ccc(Cl)cc1)C2 (centres unmarked) [compound 28] | – | 61 % to control
methyl trans-4,7-dimethyl-5-oxo-1,2,4,5-tetrahydro-3-benzothiepine-2-carboxylate [Reference Example 32] | – | 63 % to control
